The target in one series is T1, CYP2C19 (Homo sapiens, UniProt P33261).
T1 construct: The subject was a CYP2C19 extensive metabolizer (wt/wt); from tissue; host or cells: Liver of healthy study subjects (in vivo), CYP2C19 wt/wt genotype
Briefly: CYP2C19 inhibition by PPIs.

Series [1] deals with platelet function (Vasodilator-stimulated phosphoprotein, VASP). Briefly: Platelet function test: Vasodilator-stimulated phosphoprotein (VASP), platelet reactivity index (PRI). The following applies: for Difference in the LS-Means of PRI (with PPI vs without PPI): 9 days, 24 hours post Day 9 dose. It is filed as in vivo, human. An excerpt:
(§1) ANOVA models with sequence, subject within sequence, period and regimen were fitted to the pharmacodynamic parameters.

In series [2] the test system is P2Y12 platelet reactivity. As to the kind of experiment: Platelet function test: VerifyNow, P2Y12 platelet reactivity unit (PRU). The conditions noted are these: 9 days, 24 Hours Post Day 9 Dose. It is filed as in vivo, human.
Source text: as §1

Series [3] deals with platelet aggregation with ADP. As to the kind of experiment: Platelet function test: Aggregometry with adenosine diphosphate (ADP), maximum platelet aggregation (MPA). It is filed as in vivo, human. The following applies: for MPA with 5 μM ADP, Mean (SD) / MPA with 20 μM ADP, Mean (SD): 9 days, 24 Hours Post Day 9 Dose.
Source text: as §1

For series [4] the following is noted: PPI 80 mg with clopidogrel 300-mg loading dose and 75 mg/day maintenance dose; healthy subjects; cited from earlier work.
Where [5] appears, read: clopidogrel with lansoprazole 30 mg vs clopidogrel alone.
Setting [6] is: PPI group lansoprazole 30 mg: clopidogrel 75 mg QD alone or clopidogrel + PPI.
Setting [7] is: PPI group omeprazole 80 mg: clopidogrel 75 mg QD alone or clopidogrel + PPI.
The mark [8] stands for this setting: clopidogrel with dexlansoprazole 60 mg vs clopidogrel alone.
Where [9] appears, read: PPI group dexlansoprazole 60 mg: clopidogrel 75 mg QD alone or clopidogrel + PPI.
Setting [10] is: PPI group esomeprazole 40 mg: clopidogrel 75 mg QD alone or clopidogrel + PPI.

Structures can show the parent of a compound that is named as a salt.

T1 sequence (P33261 whole entry): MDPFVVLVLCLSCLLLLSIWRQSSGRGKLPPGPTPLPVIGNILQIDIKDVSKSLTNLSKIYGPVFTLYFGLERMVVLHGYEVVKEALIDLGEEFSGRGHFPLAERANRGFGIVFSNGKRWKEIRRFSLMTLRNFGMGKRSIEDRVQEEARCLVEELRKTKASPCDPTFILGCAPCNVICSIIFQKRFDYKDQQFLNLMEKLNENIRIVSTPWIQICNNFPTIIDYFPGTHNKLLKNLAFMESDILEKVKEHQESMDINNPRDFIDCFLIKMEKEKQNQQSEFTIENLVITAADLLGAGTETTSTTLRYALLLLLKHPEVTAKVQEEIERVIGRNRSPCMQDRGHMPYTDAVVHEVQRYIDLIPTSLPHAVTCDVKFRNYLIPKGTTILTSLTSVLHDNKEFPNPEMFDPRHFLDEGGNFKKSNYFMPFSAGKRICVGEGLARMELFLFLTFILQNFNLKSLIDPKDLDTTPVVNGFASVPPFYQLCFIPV

As for `Cc1c(OCC(F)(F)F)ccnc1C[S+]([O-])c1nc2ccccc2[nH]1` (stereo not drawn) [Lansoprazole], the “CYP2C19 inhibition (strength of inhibitor)” value (shortened to “CYP2C19 inhibition”) on CYP2C19 is given as “weak CYP2C19 inhibitors”. In series [1] (clopidogrel 75 mg QD with vs without lansoprazole 30 mg QD), the “Difference in the LS-Means of PRI (with PPI vs without PPI)” value (shortened to “Difference … (with PPI vs without PPI)”) was 4.1016. In addition, in series [1] (setting [5]), the “effect on clopidogrel PD in terms of PRI (90% CI of LS-Mean difference against 15% boundary)” value was “equivalence in PD was demonstrated” and the “increase in mean PRI” value amounted to 4.1%. Also, the “PRU, Mean (SD)” value in series [2] (setting [6]) is listed as 131.8 (71.27) %. Moreover, in series [3] (setting [6]), the “MPA with 5 μM ADP, Mean (SD)” value is given as 30.8 (9.35) % and the “MPA with 20 μM ADP, Mean (SD)” value is given as 41.6 (12.65) %.

`COc1ccc2[nH]c([S+]([O-])Cc3ncc(C)c(OC)c3C)nc2c1` (stereo not drawn) [Omeprazole]: the “CYP2C19 inhibition” value on CYP2C19 is given as “potent CYP2C19 inhibitors”. In addition, the “Difference … (with PPI vs without PPI)” value in series [1] (clopidogrel 75 mg QD with vs without omeprazole 80 mg QD) is listed as 11.0407. In addition, the “PRU, Mean (SD)” value in series [2] (setting [7]) is recorded as 201.5 (59.65) %. In addition, in series [3] (setting [7]), the “MPA with 5 μM ADP, Mean (SD)” value is 42.5 (14.74) % and the “MPA with 20 μM ADP, Mean (SD)” value is recorded as 53.5 (13.75) %. For the same molecule, the “metabolic DDI with clopidogrel” value in series [4] is “a metabolic DDI was found to exist”.

For `Cc1c(OCC(F)(F)F)ccnc1C[S@@+]([O-])c1nc2ccccc2[nH]1` [Dexlansoprazole], the “CYP2C19 inhibition” value at CYP2C19 was “weak CYP2C19 inhibitors”. The “Difference … (with PPI vs without PPI)” value in series [1] (clopidogrel 75 mg QD with vs without dexlansoprazole 60 mg QD) stood at 2.0474. In series [1] (setting [8]), the “effect on clopidogrel PD in terms of PRI (90% CI of LS-Mean difference against 15% boundary)” value is reported as “equivalence in PD was demonstrated” and the “increase in mean PRI” value is 2.0%. The “PRU, Mean (SD)” value in series [2] (setting [9]) is reported as 146.7 (84.45) %. Besides, in series [3] (setting [9]), the “MPA with 5 μM ADP, Mean (SD)” value is listed as 36.2 (16.87) % and the “MPA with 20 μM ADP, Mean (SD)” value is listed as 46.3 (16.93) %. Further, in series [3] (clopidogrel with dexlansoprazole 60 mg, either MPA (5 and 20 μM ADP)), the “difference in MPA compared with clopidogrel alone, statistical significance” value is listed as “not statistically significant”.

Consider `COC(=O)[C@H](c1ccccc1Cl)N1CCc2sccc2C1` [Clopidogrel, methyl (+)-(S)-α-(2-chlorophenyl)-6,7-dihydrothieno[3,2-c]pyridine-5 (4H)-acetate sulfate (1:1)], for which the “PRU, Mean (SD)” value in series [2] (setting [9]) is 124.2 (79.10) %; in series [2] (setting [10]), 121.1 (50.64) %; in series [2] (setting [6]) it was 114.9 (56.44) %; in series [2] (setting [7]), 133.0 (67.62) %. The “MPA with 5 μM ADP, Mean (SD)” value in series [3] (setting [9]) is 34.6 (14.23) %; in series [3] (setting [10]) it was 29.3 (10.41) %; in series [3] (setting [6]), 28.1 (6.76) %; in series [3] (setting [7]), 34.2 (12.32) %. The “MPA with 20 μM ADP, Mean (SD)” value in series [3] (setting [9]) is reported as 43.1 (13.24) %; in series [3] (setting [10]), 39.3 (13.22) %; in series [3] (setting [6]), 36.7 (9.11) %; in series [3] (setting [7]), 43.5 (14.00) %.

For `COc1ccc2nc([S@@+]([O-])Cc3ncc(C)c(OC)c3C)[nH]c2c1` [Esomeprazole], the “CYP2C19 inhibition” value at CYP2C19 is “potent CYP2C19 inhibitors”. For the same molecule, the “Difference … (with PPI vs without PPI)” value in series [1] (clopidogrel 75 mg QD with vs without esomeprazole 40 mg QD) is 11.4437. Also, the “effect on clopidogrel PD in terms of PRI (90% CI of LS-Mean difference against 15% boundary)” value in series [1] (clopidogrel with esomeprazole 40 mg vs clopidogrel alone) is “very similar to omeprazole 80 mg”. In series [2] (setting [10]), the “PRU, Mean (SD)” value is 177.6 (55.37) %. Moreover, in series [3] (setting [10]), the “MPA with 5 μM ADP, Mean (SD)” value was 38.2 (17.77) % and the “MPA with 20 μM ADP, Mean (SD)” value was 47.9 (15.77) %.

The record behind these values is patent publication US9889125B2 (TAKEDA PHARMACEUTICALS U.S.A., INC., priority 2011, dated 2018).
